From patent EP4534147A1, “STING ANTAGONIST COMPOUNDS” (Sulis Therapeutics ApS, priority 2023, dated 2025)
pIC50: −log10 of the molar value.

Assays:
[1] = target: C-terminal domain (CTD) of human STING (Homo sapiens, UniProt Q86WV6); experiment: STING binding FP assay II (as FP assay I, lower STING concentration); set-up: recombinant human STING protein (155-379); conditions: 7 nM STING in buffer A, 4 nM fluorescein-labelled STING ligand (Probe 1)
Procedure: The interaction between molecules and the C-terminal domain (CTD) of human STING was evaluated using a competition binding assay. In this assay, recombinant human STING protein (155-379) and a STING binding fluorescent probe were employed. Upon binding of the probe to STING, the rotation of the fluorescent probe is slowed due to the larger molecular size of the protein-bound complex. As a result, emitted light retains its plane of polarization, leading to an increase in fluorescence polarization. Molecules competing for the probe binding site displace the probe, which leads to rapid randomization of the polarization plane of the emitted light and a subsequent decrease in measured fluorescence polarization signal. Change in polarization was measured, allowing a comparative evaluation of the binding affinities of different compounds to the target protein.
The assay was performed in 96-well plates (ThermoFisher, cat.# 237108) containing 100 µl : 10 µL test compound in 10% DMSO and buffer A (150 mM NaCl, 50 mM HEPES pH 7.5, 1 mM DTT) + 90 µL prepared master mix solution of: 4 nM fluorescein-labelled STING ligand (Probe 1; synthesis described above) in buffer A + 0.055% Tween-20 (v/v) and 35 nM STING in buffer A. Post mixing, plates were agitated at 600 rpm and incubated for 20 min at room temperature. Subsequent measurements of the fluorescence polarization signal were made on a BioTek Synergy-H1 plate reader, using a polarization filter; excitation: 485/20 nm, emission: 528/20 nm) with a gain-setting of 75. IC50 values were determined using a standard non-linear regression four-parameter curve fit in Graphpad Prism.
The procedure for STING binding FP assay II is the same as described for STING binding FP assay I, except for a lower STING concentration. In STING binding FP assay II, a concentration of 7 nM STING in buffer A was used.

STING = target: T1, STING (Homo sapiens, UniProt Q86WV6); experiment: Human FB STING antagonist assay (IFN-a/b release); type: cell-based; conditions: Human skin fibroblasts, 2h pre-treatment, 300 nM GSK STING agonist (CAS number: 2138299-34-8) for 20 h, release of IFN-a/b by HEK-Blue IFN-α/β bioassay
T1 construct: endogenous in cells; host or cells: human skin fibroblasts
Procedure: STING antagonist activity can be determined by a human fibroblast antagonist assay. For this, human skin fibroblasts are pre-treated for 2h with a serial dilution of the compound, and are then stimulated for 20 hours with 300 nM STING agonist (e.g. from GSK, CAS number: 2138299-34-8). Supernatants are then harvested and assessed for IFN-a/b release, which indicates STING activation. IFN-a/b concentration in the supernatant is determined, e.g. using an IFN-α/β bioassay. IC50 values are calculated using a non-linear regression fitting, variable slope (4 parameters).
Human skin fibroblasts were pre-treated for 2h with a serial dilution of test compound followed by stimulation with mock or 300 nM GSK STING agonist (CAS number: 2138299-34-8). Supernatants were harvested after 20 h of STING agonist stimulation. Release of IFN-a/b was determined using HEK-Blue IFN-α/β bioassay (Invivogen). Cellular viability was assessed using Alamar Blue HS assay. IC50 values were estimated using a non-linear regression fitting, variable slope (4 parameters) in GraphPad Prism 9.3.1.

C-terminal domain (CTD) of human STING, sequence (Q86WV6 155-379): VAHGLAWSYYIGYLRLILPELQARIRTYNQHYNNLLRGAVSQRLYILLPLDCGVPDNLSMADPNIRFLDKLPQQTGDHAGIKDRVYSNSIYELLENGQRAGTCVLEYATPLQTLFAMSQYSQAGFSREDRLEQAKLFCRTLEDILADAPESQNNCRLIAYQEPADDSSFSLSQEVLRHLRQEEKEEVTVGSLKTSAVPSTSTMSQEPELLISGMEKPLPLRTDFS
T1 sequence (Q86WV6 whole entry): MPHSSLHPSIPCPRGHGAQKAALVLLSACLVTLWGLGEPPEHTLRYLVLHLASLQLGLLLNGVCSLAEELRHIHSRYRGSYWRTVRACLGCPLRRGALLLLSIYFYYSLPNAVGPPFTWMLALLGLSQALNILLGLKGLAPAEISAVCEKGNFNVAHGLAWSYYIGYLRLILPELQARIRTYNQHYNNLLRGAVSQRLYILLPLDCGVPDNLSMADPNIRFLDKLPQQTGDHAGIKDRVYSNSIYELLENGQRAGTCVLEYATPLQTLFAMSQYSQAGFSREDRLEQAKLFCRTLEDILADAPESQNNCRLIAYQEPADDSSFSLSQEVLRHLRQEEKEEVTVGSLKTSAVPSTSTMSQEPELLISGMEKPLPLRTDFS

| SMILES | pIC50 [1] | pIC50 (STING) |
| --- | --- | --- |
| CCn1nc(C)cc1C(=O)N=c1n(C)c2cc(C(N)=O)ccc2n1CCC(CCn1c(=NC(=O)c2cc(C)nn2CC)n(C)c2cc(C(N)=O)ccc21)OCC(=O)N1CCC[C@H]1C(=O)N1CCc2cc(OC)ccc2C1 (stereo partly drawn) [Example 26, 1-[3-(2-{(S)-2-[(6-Methoxy-1,2,3,4-tetrahydro-2-isoquinolyl)carbonyl]-1-pyrrolidinyl}-2-oxoethoxy)-5-{5-carbamoyl-2-[(1-ethyl-3-methyl-5-pyrazolyl)carbonylimino]-3-methyl-2,3-dihydro-1H-1,3-benzimidazol-1-yl}pentyl]-2-[(1-ethyl-3-methyl-5-pyrazolyl)carbonylimino]-3-methyl-2,3-dihydro-1H-1,3-benzimidazole-5-carboxamide] | 8.46 | 5.85 |
| CCn1nc(C)cc1C(=O)N=c1n(C)c2cc(C(N)=O)ccc2n1CCC(CCn1c(=NC(=O)c2cc(C)nn2CC)n(C)c2cc(C(N)=O)ccc21)OCC(=O)N1CCOC[C@@H]1c1ccccc1 (stereo partly drawn) [Example 30, 1-(3-{2-[(S)-3-Phenyl-4-morpholinyl]-2-oxoethoxy}-5-{5-carbamoyl-2-[(1-ethyl-3-methyl-5-pyrazolyl)carbonylimino]-3-methyl-2,3-dihydro-1H-1,3-benzimidazol-1-yl}pentyl)-2-[(1-ethyl-3-methyl-5-pyrazolyl)carbonylimino]-3-methyl-2,3-dihydro-1H-1,3-benzimidazole-5-carboxamide] | 8.43 | 5.44 |
| CCOC(=O)COC(CCn1c(NC(=O)c2cc(C)nn2CC)nc2cc(C(N)=O)ccc21)CCn1c(NC(=O)c2cc(C)nn2CC)nc2cc(C(N)=O)ccc21 [Example 1, Ethyl {3-[5-carbamoyl-2-(1-ethyl-3-methyl-5-pyrazolylcarbonylamino)-1H-1,3-benzimidazol-1-yl]-1-{2-[5-carbamoyl-2-(1-ethyl-3-methyl-5-pyrazolylcarbonylamino)-1H-1,3-benzimidazol-1-yl]ethyl}propoxy}acetate] |  | 5.49 |
| CCn1nc(C)cc1C(=O)N=c1n(C)c2cc(C(N)=O)ccc2n1CCC(CCn1c(=NC(=O)c2cc(C)nn2CC)n(C)c2cc(C(N)=O)ccc21)OCC(=O)N1CCC[C@@H]1c1cc(F)ccc1F (stereo partly drawn) [Example 27, 1-(3-{2-[(R)-2-(2,5-Difluorophenyl)-1-pyrrolidinyl]-2-oxoethoxy}-5-{5-carbamoyl-2-[(1-ethyl-3-methyl-5-pyrazolyl)carbonylimino]-3-methyl-2,3-dihydro-1H-1,3-benzimidazol-1-yl}pentyl)-2-[(1-ethyl-3-methyl-5-pyrazolyl)carbonylimino]-3-methyl-2,3-dihydro-1H-1,3-benzimidazole-5-carboxamide] | 8.43 |  |
| CCn1nc(C)cc1C(=O)N=c1n(C)c2cc(C(N)=O)ccc2n1CCC(CCn1c(=NC(=O)c2cc(C)nn2CC)n(C)c2cc(C(N)=O)ccc21)OCC(=O)Nc1cc(C)[nH]n1 (stereo not shown) [Example 22, 1-{3-[(N-5-Methyl-3-pyrazolylcarbamoyl)methoxy]-5-{5-carbamoyl-2-[(1-ethyl-3-methyl-5-pyrazolyl)carbonylimino]-3-methyl-2,3-dihydro-1H-1,3-benzimidazol-1-yl}pentyl}-2-[(1-ethyl-3-methyl-5-pyrazolyl)carbonylimino]-3-methyl-2,3-dihydro-1H-1,3-benzimidazole-5-carboxamide] | 7.89 | 5.22 |

Continued, values first:

| pIC50 [1] | pIC50 (STING) | SMILES |
| --- | --- | --- |
| 8.08 | 5.41 | CCn1nc(C)cc1C(=O)N=c1n(C)c2cc(C(N)=O)ccc2n1CCC(CCn1c(=NC(=O)c2cc(C)nn2CC)n(C)c2cc(C(N)=O)ccc21)OCC(=O)N1CCC[C@H]1c1nnn[nH]1 (stereo partly drawn) [Example 28, 1-(3-{2-[(S)-2-(1H-Tetrazol-5-yl)-1-pyrrolidinyl]-2-oxoethoxy}-5-{5-carbamoyl-2-[(1-ethyl-3-methyl-5-pyrazolyl)carbonylimino]-3-methyl-2,3-dihydro-1H-1,3-benzimidazol-1-yl}pentyl)-2-[(1-ethyl-3-methyl-5-pyrazolyl)carbonylimino]-3-methyl-2,3-dihydro-1H-1,3-benzimidazole-5-carboxamide] |
| 8.77 | 5.01 | CCn1nc(C)cc1C(=O)N=c1n(C)c2cc(C(N)=O)ccc2n1CCC(CCn1c(=NC(=O)c2cc(C)nn2CC)n(C)c2cc(C(N)=O)ccc21)OCC(=O)N1CCN(C(C)=O)CC1 (stereo not shown) [Example 12, 1-{3-[2-(4-Acetyl-1-piperazinyl)-2-oxoethoxy]-5-{5-carbamoyl-2-[(1-ethyl-3-methyl-5-pyrazolyl)carbonylimino]-3-methyl-2,3-dihydro-1H-1,3-benzimidazol-1-yl}pentyl}-2-[(1-ethyl-3-methyl-5-pyrazolyl)carbonylimino]-3-methyl-2,3-dihydro-1H-1,3-benzimidazole-5-carboxamide] |
| 8.34 |  | CCn1nc(C)cc1C(=O)N=c1n(C)c2cc(C(N)=O)ccc2n1CCC(CCn1c(=NC(=O)c2cc(C)nn2CC)n(C)c2cc(C(N)=O)ccc21)OCC(=O)N1CCC[C@H]1c1ccccc1 (stereo partly drawn) [Example 25, 1-(3-{2-[(S)-2-Phenyl-1-pyrrolidinyl]-2-oxoethoxy}-5-{5-carbamoyl-2-[(1-ethyl-3-methyl-5-pyrazolyl)carbonylimino]-3-methyl-2,3-dihydro-1H-1,3-benzimidazol-1-yl}pentyl)-2-[(1-ethyl-3-methyl-5-pyrazolyl)carbonylimino]-3-methyl-2,3-dihydro-1H-1,3-benzimidazole-5-carboxamide] |
| 8.20 |  | CCn1nc(C)cc1C(=O)N=c1n(C)c2cc(C(N)=O)ccc2n1CCC(CCn1c(=NC(=O)c2cc(C)nn2CC)n(C)c2cc(C(N)=O)ccc21)OCC(=O)n1nc(N)cc1C (stereo not shown) [Example 23, 1-{3-[2-(3-Amino-5-methyl-1-pyrazolyl)-2-oxoethoxy]-5-{5-carbamoyl-2-[(1-ethyl-3-methyl-5-pyrazolyl)carbonylimino]-3-methyl-2,3-dihydro-1H-1,3-benzimidazol-1-yl}pentyl}-2-[(1-ethyl-3-methyl-5-pyrazolyl)carbonylimino]-3-methyl-2,3-dihydro-1H-1,3-benzimidazole-5-carboxamide] |
| 8.32 |  | CCn1nc(C)cc1C(=O)N=c1n(C)c2cc(C(N)=O)ccc2n1CCC(CCn1c(=NC(=O)c2cc(C)nn2CC)n(C)c2cc(C(N)=O)ccc21)OCC(=O)n1nc(C)cc1N (stereo not shown) [Example 24, 1-{3-[2-(5-Amino-3-methyl-1-pyrazolyl)-2-oxoethoxy]-5-{5-carbamoyl-2-[(1-ethyl-3-methyl-5-pyrazolyl)carbonylimino]-3-methyl-2,3-dihydro-1H-1,3-benzimidazol-1-yl}pentyl}-2-[(1-ethyl-3-methyl-5-pyrazolyl)carbonylimino]-3-methyl-2,3-dihydro-1H-1,3-benzimidazole-5-carboxamide] |
| 8.32 |  | CCn1nc(C)cc1C(=O)N=c1n(C)c2cc(C(N)=O)ccc2n1CCC(CCn1c(=NC(=O)c2cc(C)nn2CC)n(C)c2cc(C(N)=O)ccc21)OCC(=O)N(C(C)C)C(C)C (stereo not shown) [Example 21, 1-(3-{[Bis(isopropyl)carbamoyl]methoxy}-5-{5-carbamoyl-2-[(1-ethyl-3-methyl-5-pyrazolyl)carbonylimino]-3-methyl-2,3-dihydro-1H-1,3-benzimidazol-1-yl}pentyl)-2-[(1-ethyl-3-methyl-5-pyrazolyl)carbonylimino]-3-methyl-2,3-dihydro-1H-1,3-benzimidazole-5-carboxamide] |
